Data set [1] deals with cAMP and cAMP-inhibited cGMP 3',5'-cyclic phosphodiesterase 10A (Homo sapiens, UniProt Q9Y233). The experiment in a line: Inhibition of PDE10A2 (449 to 770 residues) (unknown origin) expressed in Escherichia coli BL21 using [3H-GMP] or [3H-AMP] as substrate incubated for 15 mins by liquid scintillation counting method.
The target in data set [2] is 3',5'-cyclic-AMP phosphodiesterase 4D (Homo sapiens, UniProt Q08499). The experiment in a line: Inhibition of PDE4D2 (86 to 413 residues) (unknown origin) expressed in Escherichia coli BL21 using [3H-GMP] or [3H-AMP] as substrate incubated for 15 mins by liquid scintillation counting method.
3',5'-cyclic-AMP phosphodiesterase 4D, sequence (Q08499 whole entry, the tested form may be a part): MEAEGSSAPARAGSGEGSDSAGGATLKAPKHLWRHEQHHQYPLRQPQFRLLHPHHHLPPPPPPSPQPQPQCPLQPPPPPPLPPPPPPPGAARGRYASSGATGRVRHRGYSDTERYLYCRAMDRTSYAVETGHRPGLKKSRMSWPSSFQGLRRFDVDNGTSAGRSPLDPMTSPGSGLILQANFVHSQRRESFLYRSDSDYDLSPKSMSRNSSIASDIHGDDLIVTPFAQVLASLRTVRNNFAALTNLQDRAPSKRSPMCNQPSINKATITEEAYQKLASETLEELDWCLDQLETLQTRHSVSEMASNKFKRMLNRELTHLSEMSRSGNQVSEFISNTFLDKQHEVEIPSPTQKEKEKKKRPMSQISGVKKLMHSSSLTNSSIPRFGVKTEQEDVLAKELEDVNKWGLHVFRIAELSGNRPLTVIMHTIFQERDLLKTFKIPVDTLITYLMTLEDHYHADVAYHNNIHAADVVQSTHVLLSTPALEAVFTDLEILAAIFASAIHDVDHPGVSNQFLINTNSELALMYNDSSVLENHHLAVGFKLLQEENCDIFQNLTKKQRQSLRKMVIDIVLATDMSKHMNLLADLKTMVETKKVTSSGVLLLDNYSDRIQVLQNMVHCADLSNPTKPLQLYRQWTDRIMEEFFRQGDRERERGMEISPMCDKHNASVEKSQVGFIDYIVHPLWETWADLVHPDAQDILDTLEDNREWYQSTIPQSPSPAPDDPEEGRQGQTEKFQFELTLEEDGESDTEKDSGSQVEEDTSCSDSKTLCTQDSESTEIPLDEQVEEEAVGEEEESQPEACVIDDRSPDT
The target in data set [3] is cGMP-inhibited 3',5'-cyclic phosphodiesterase 3A (Homo sapiens, UniProt Q14432). Nature of the data set: Inhibition of PDE3A (679 to 1087 residues) (unknown origin) expressed in Escherichia coli BL21 using [3H-GMP] or [3H-AMP] as substrate incubated for 15 mins by liquid scintillation counting method.
cGMP-inhibited 3',5'-cyclic phosphodiesterase 3A, sequence (Q14432 whole entry, the tested form may be a part): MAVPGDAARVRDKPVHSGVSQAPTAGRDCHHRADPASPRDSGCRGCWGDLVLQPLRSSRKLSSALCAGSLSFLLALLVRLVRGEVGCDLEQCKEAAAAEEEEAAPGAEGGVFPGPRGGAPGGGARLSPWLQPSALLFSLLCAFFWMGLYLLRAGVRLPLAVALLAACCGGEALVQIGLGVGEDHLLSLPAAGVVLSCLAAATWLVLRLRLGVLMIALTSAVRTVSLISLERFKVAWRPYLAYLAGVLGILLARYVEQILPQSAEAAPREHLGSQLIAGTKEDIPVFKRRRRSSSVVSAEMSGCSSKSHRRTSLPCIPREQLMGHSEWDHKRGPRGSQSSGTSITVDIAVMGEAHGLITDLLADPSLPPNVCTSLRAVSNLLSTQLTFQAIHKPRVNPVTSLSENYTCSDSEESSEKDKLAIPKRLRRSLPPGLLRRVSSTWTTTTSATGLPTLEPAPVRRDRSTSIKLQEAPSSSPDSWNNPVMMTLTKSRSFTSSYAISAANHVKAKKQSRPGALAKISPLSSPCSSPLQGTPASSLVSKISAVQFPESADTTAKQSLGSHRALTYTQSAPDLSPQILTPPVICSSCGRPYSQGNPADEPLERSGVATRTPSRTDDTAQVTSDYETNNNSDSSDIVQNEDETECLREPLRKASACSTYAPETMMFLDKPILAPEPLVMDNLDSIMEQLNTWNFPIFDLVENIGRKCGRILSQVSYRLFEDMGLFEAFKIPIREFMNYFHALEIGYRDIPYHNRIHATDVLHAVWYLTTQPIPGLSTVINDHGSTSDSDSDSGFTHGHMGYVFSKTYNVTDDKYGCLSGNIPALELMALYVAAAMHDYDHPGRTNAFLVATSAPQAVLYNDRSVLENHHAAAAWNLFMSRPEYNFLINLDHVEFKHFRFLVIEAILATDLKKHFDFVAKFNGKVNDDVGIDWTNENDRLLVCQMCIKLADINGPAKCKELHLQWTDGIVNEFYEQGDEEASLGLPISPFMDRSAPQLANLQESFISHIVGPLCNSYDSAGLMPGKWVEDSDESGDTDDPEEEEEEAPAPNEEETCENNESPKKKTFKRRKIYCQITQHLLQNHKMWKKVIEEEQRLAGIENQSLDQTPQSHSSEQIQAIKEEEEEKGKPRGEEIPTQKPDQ
For data set [4], the target named is High affinity cAMP-specific and IBMX-insensitive 3',5'-cyclic phosphodiesterase 8A (Homo sapiens, UniProt O60658). Nature of the data set: Inhibition of PDE8A1 (480 to 820 residues) (unknown origin) expressed in Escherichia coli BL21 using [3H-GMP] or [3H-AMP] as substrate incubated for 15 mins by liquid scintillation counting method.
High affinity cAMP-specific and IBMX-insensitive 3',5'-cyclic phosphodiesterase 8A, sequence (O60658 whole entry, the tested form may be a part): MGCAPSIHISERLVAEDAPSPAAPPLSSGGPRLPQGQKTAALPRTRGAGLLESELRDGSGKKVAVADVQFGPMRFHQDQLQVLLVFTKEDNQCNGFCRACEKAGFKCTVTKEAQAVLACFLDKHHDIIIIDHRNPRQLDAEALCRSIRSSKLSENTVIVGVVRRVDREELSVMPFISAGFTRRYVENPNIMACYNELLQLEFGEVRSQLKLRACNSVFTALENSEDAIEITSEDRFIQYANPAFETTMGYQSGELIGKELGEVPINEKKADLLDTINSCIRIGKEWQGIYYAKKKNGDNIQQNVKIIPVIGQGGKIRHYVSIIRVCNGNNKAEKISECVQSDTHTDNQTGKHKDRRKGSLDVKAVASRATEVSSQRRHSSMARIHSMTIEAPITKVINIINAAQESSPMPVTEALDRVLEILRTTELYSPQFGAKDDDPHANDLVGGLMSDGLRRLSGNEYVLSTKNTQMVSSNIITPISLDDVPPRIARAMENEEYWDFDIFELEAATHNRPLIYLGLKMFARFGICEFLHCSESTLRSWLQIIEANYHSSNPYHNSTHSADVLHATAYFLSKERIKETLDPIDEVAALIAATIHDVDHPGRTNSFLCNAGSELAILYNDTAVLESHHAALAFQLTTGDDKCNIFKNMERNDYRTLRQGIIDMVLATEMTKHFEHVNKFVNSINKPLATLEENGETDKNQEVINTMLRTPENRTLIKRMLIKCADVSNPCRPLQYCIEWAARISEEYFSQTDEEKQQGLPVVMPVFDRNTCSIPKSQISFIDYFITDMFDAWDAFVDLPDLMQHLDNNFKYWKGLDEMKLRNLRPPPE
The nature of data set [5]: Stability in mouse liver microsomes assessed as half life measure upto 45 mins in presence of NADPH by LC-MS analysis. Format: ADME, Microsome. (Liver microsomes are vesicles of endoplasmic reticulum, rich in cytochrome P450 enzymes.)
Data set [6] in a line: AUC (0 to infinity) in ICR mouse at 10 mg/kg, iv measured upto 24 hrs by LC-MS/MS analysis. The class given is ADME, organism-based. On the set-up: time < 24 hrs, dose 10 mg/kg, route iv. The settings on record: in vivo.
Data set [7] in a line: Half life in ICR mouse at 10 mg/kg, iv measured upto 24 hrs by LC-MS/MS analysis. Format: ADME, organism-based. The following applies: in vivo.
Data set [8] can be described thus: AUC (0 to infinity) in ICR mouse at 30 mg/kg, po measured upto 24 hrs by LC-MS/MS analysis. The class given is ADME, organism-based. On the set-up: dose 30 mg/kg, time < 24 hrs, route po. The following applies: in vivo.
A short description of data set [9]: Oral bioavailability in ICR mouse at 30 mg/kg measured upto 24 hrs by LC-MS/MS analysis. The class given is ADME, organism-based. The settings on record: in vivo.
The test system of a further data set is RAW264.7. Nature of the data set: Anti-inflammatory activity against mouse RAW264.7 cells assessed as decrease in LPS-induced TNF-alpha mRNA levels incubated for 4 hrs followed LPS-stimulation for 24 hrs by SYBR green staining based qRT-PCR analysis. The class given is functional, cell-based. The settings on record: time 28.0 hrs, DDE = dose-dependent effect.

Data set [10] concerns Mus musculus. The experiment in a line: Anti-psoriatic activity in IMQ-induced BALB/c psoriasis mouse model assessed as reduction in scales score at 10 mg/kg, po for 7 days. Format: functional, organism-based. The settings on record: time 7.0 day.
For data set [11], the system named is Mus musculus. Nature of the data set: Anti-psoriatic activity in IMQ-induced BALB/c psoriasis mouse model assessed as reduction in thickness score at 10 mg/kg, po for 7 days. The following applies: time 7.0 day. Format: functional, organism-based.
Data set [12] is described as follows: Toxicity in IMQ-induced BALB/c psoriasis mouse model assessed as body weight loss at 10 mg/kg, po for 7 days. The class given is organism-based. The settings on record: in vivo, 168 h, time 7 day.
The species entered for data set [13] is Mus musculus. Nature of the data set: Anti-psoriatic activity in IMQ-induced BALB/c psoriasis mouse model assessed as reduction in thickness score at 62.5 mg as 2% ointment, TOP daily and measured upto 7 days. The class given is functional, organism-based. The following applies: time <= 7.0 day, DDE = dose-dependent effect.
Data set [14] can be described thus: Toxicity in BALB/c mouse assessed as skin lesions at 62.5 mg as 2% ointment, TOP daily and measured upto 7 days. The settings on record: in vivo, topical_or_ocular, 168 h, time < 7 day.
The species entered for data set [15] is Mus musculus. Nature of the data set: Anti-psoriatic activity in IMQ-induced BALB/c psoriasis mouse model assessed as change in skin thickness at 62.5 mg as 2% ointment, TOP daily for 7 days by hematoxylin and eosin staining based confocal laser scanning microscopy. Format: functional, organism-based. The following applies: time 7.0 day.
Data set [16] is filed under the species Mus musculus. The experiment in a line: Anti-psoriatic activity in IMQ-induced BALB/c psoriasis mouse model assessed as reduction in epidermal cell proliferation at 62.5 mg as 2% ointment, TOP daily for 7 days by Ki67+ expression based immunohistochemistry analysis. The class given is functional, organism-based. The following applies: time 7.0 day.
Data set [17] is filed under the species Mus musculus. Nature of the data set: Anti-psoriatic activity in IMQ-induced BALB/c psoriasis mouse model assessed as reduction in scales score at 62.5 mg as 4% ointment, TOP daily and measured upto 7 days. The class given is functional, organism-based. The settings on record: time <= 7.0 day, DDE = dose-dependent effect.
The species entered for data set [18] is Mus musculus. Nature of the data set: Anti-psoriatic activity in IMQ-induced BALB/c psoriasis mouse model assessed as reduction in thickness score at 62.5 mg as 4% ointment, TOP daily and measured upto 7 days. The following applies: time <= 7.0 day, DDE = dose-dependent effect. The class given is functional, organism-based.
The nature of data set [19]: Toxicity in IMQ-induced BALB/c psoriasis mouse model assessed as body weight loss at 62.5 mg as 4% ointment, TOP daily and measured upto 7 days. The settings on record: in vivo, topical_or_ocular, 168 h, time < 7 day.
Data set [20] is filed under the species Mus musculus. The experiment in a line: Anti-psoriatic activity in IMQ-induced BALB/c psoriasis mouse model assessed as reduction IMQ- induced immune response by measuring spleen weight loss at 62.5 mg as 4% ointment, TOP daily and measured upto 7 days. The following applies: time <= 7.0 day. The class given is functional, organism-based.
Data set [21] is filed under the species Mus musculus. Nature of the data set: Anti-psoriatic activity in IMQ-induced BALB/c psoriasis mouse model assessed as change in skin thickness at 62.5 mg as 4% ointment, TOP daily for 7 days by hematoxylin and eosin staining based confocal laser scanning microscopy. The following applies: time 7.0 day. Format: functional, organism-based.

Calls of active or inactive are those of the source.

cAMP and cAMP-inhibited cGMP 3',5'-cyclic phosphodiesterase 10A, sequence (Q9Y233 whole entry, the tested form may be a part): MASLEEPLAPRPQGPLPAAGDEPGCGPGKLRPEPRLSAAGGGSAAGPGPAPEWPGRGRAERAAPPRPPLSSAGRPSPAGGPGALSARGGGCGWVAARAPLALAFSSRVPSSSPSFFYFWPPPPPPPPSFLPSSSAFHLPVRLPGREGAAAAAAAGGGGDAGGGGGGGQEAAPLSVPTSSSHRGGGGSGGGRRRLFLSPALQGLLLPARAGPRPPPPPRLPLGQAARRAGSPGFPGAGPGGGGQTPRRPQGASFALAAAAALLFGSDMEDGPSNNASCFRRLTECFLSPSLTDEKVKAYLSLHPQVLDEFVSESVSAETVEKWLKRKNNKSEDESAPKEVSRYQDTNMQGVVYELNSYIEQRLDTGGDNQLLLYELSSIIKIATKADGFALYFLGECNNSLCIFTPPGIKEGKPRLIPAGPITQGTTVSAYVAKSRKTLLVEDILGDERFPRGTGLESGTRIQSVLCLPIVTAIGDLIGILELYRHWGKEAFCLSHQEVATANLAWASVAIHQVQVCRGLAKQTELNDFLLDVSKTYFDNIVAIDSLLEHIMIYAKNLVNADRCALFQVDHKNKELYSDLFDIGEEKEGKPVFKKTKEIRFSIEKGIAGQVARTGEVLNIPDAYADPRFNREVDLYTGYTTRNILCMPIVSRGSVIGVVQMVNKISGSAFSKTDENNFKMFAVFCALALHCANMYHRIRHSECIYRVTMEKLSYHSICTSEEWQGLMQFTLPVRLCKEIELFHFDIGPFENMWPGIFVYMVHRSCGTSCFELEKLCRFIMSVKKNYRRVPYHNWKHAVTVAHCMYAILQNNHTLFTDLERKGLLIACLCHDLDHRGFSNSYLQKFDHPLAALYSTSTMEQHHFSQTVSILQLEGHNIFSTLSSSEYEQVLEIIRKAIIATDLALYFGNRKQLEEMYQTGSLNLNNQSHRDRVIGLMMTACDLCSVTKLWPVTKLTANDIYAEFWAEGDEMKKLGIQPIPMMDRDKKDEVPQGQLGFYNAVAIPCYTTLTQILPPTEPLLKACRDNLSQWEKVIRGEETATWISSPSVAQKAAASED

For orientation: IC50 means the concentration that gives 50% inhibition. The low end stands for greater potency, the high end for weaker potency. As a reminder, the half-life is the time needed for the level to fall by half in the phase considered. In general, AUC(0-inf) refers to total exposure, with the tail of the curve extrapolated. A high value points to high exposure. For orientation: bioavailability means the share of a dose that reaches the circulation, judged against a reference dose that is usually intravenous. As for `CCn1c(=O)c2c(c3ccc(C)nc31)O[C@@](C)(CCO)C[C@H]2C=C(C)C`, the 50% inhibitory concentration (IC50) in [1] was 1760 nM; in data set [2] it was 3.1 nM; in data set [3], greater than 10 µM; in data set [4], 820 nM. Further, the half-life in data set [5] was 1.3 min; in data set [7] it was 55.2 min. In addition, the AUC(0-inf) in [6] is 2620 ng·h/mL; in data set [8], 1200 ng·h/mL. For the same compound, the bioavailability in data set [9] stood at 14.4%. Also, the Activity result was “Dde” in the data set on RAW264.7; “Non-Toxic” in data set [12]; “Dde” in the data set listed under Mus musculus [13]; “Non-Toxic” in [14]; “Dde” in the data set filed under Mus musculus [17]; “Dde” in the data set listed under Mus musculus [18]. The Activity entry in data set [19] was “Non-Toxic”. Further, the result in the data set on Mus musculus [10], with Mus musculus [11], in the data set filed under Mus musculus [15], in the data set listed under Mus musculus [16], in the data set listed under Mus musculus [20] and in the data set listed under Mus musculus [21] was Active.
